Laboratory results from patent US20250195521A1 (Revolution Medicines, Inc., priority 2020, published 2025).

Assays:
Type in all cases: biochemical
[1] = molecular target: KRAS Q61H (Homo sapiens (Human), UniProt P01116+P62937, Q61H); test: Ras-Raf disruption/FRET/MOA assay, KRAS Q61H
From the text: (§1) Disruption of B-Raf Ras-Binding Domain (BRAF^RBD) Interaction with K-Ras by Compounds of the Invention (Also Called a FRET Assay or an MOA Assay)
(§2) Note—The following protocol describes a procedure for monitoring disruption of K-Ras G12C (GMP-PNP) binding to BRAF^RBD by a compound of the invention. This protocol may also be executed substituting other Ras proteins or nucleotides, such as K-Ras G12D and K-Ras G13D.
(§3) The purpose of this biochemical assay was to measure the ability of test compounds to facilitate ternary complex formation between a nucleotide-loaded K-Ras isoform and Cyclophilin A; the resulting ternary complex disrupts binding to a BRAF^RBD construct, inhibiting K-Ras signaling through a RAF effector. Data is reported as IC50 values.
(§4) In assay buffer containing 25 mM HEPES pH 7.3, 0.002% Tween20, 0.1% BSA, 100 mM NaCl and 5 mM MgCl2, tagless Cyclophilin A, His6-K-Ras-GMPPNP, and GST-BRAF^RBD were combined in a 384-well assay plate at final concentrations of 25 μM, 12.5 nM, and 50 nM, respectively. Compound was present in plate wells as a 10-point 3-fold dilution series starting at a final concentration of 30 μM. After incubation at 25° C. for 3 hours, a mixture of anti-His Eu—W1024 and anti-GST allophycocyanin was then added to assay sample wells at final concentrations of 10 nM and 50 nM, respectively, and the reaction incubated for an additional 1.5 hours. […] Compounds that facilitate disruption of a K-Ras: RAF complex were identified as those eliciting a decrease in the TR-FRET ratio relative to DMSO control wells.

[2] = molecular target: KRAS G12D (Homo sapiens (Human), UniProt P01116+P62937, G12D); test: Ras-Raf disruption/FRET/MOA assay, KRAS G12D
KRAS G12D, sequence (P01116 other isoform, or with tags, fused parts or gaps G12D): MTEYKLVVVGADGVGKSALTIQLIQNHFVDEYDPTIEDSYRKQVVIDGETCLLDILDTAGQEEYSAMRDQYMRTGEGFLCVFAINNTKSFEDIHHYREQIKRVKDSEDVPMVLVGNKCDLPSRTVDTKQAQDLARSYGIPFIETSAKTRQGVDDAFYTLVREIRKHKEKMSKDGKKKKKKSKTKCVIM
KRAS G12D, sequence (P62937 whole entry): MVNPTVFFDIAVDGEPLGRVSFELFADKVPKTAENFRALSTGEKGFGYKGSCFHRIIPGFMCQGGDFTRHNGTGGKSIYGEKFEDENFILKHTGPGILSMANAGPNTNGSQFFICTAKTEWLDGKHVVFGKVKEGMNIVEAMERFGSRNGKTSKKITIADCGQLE
In short: (§5)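 His6-Ras-GMPPNP 12.5 nM + GST-BRAF^RBD 50 nM + CypA 25 μM; HEPES pH 7.3, 5 mM MgCl2, 0.1% BSA, 0.002% Tween20. Cpd 10-pt 3-fold from 30 μM final, 3 h 25° C. Eu/APC antibody detection 1.5 h; TR-FRET ratio drop vs DMSO → IC50.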

[3] = molecular target: KRAS WT (Homo sapiens (Human), UniProt P01116+P62937); test: Ras-Raf disruption/FRET/MOA assay, KRAS WT
KRAS WT, sequence (P01116 other isoform, or with tags, fused parts or gaps): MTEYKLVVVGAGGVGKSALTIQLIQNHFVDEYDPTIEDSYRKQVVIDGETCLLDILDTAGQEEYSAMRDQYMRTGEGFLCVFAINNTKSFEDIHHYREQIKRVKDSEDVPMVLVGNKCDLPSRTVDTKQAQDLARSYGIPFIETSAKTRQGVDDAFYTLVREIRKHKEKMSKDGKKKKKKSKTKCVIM
KRAS WT, sequence (P62937 whole entry): as the sequence (P62937 whole entry) above
In short: as §5

[4] = molecular target: NRAS Q61R (Homo sapiens (Human), UniProt P01111+P62937, Q61R); test: Ras-Raf disruption/FRET/MOA assay, NRAS Q61R
NRAS Q61R, sequence (P01111 whole entry Q61R): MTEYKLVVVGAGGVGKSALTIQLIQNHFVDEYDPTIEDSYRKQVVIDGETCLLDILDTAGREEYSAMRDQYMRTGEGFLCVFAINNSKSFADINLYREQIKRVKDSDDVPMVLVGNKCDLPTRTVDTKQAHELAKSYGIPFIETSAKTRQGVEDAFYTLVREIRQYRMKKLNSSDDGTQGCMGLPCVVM
NRAS Q61R, sequence (P62937 whole entry): as the sequence (P62937 whole entry) above
From the text: as §1, §2, §3, §4

[5] = molecular target: NRAS G12C (Homo sapiens (Human), UniProt P01111+P62937, G12C); test: Ras-Raf disruption/FRET/MOA assay, NRAS G12C
NRAS G12C, sequence (P01111 whole entry G12C): as the sequence (P01111 whole entry Q61R) above, with G12C, R61Q counted along it
NRAS G12C, sequence (P62937 whole entry): as the sequence (P62937 whole entry) above
In short: as §5

[6] = molecular target: KRAS G13D (Homo sapiens (Human), UniProt P01116+P62937, G13D); test: Ras-Raf disruption/FRET/MOA assay, KRAS G13D
KRAS G13D, sequence (P01116 other isoform, or with tags, fused parts or gaps G13D): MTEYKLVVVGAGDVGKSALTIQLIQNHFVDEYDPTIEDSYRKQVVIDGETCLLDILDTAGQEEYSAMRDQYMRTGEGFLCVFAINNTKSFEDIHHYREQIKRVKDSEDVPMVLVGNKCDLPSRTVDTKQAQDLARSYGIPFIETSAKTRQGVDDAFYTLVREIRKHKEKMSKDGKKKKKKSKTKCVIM
KRAS G13D, sequence (P62937 whole entry): as the sequence (P62937 whole entry) above
In short: as §5

[7] = molecular target: KRAS G13C (Homo sapiens (Human), UniProt P01116+P62937, G13C); test: Ras-Raf disruption/FRET/MOA assay, KRAS G13C
KRAS G13C, sequence (P01116 other isoform, or with tags, fused parts or gaps G13C): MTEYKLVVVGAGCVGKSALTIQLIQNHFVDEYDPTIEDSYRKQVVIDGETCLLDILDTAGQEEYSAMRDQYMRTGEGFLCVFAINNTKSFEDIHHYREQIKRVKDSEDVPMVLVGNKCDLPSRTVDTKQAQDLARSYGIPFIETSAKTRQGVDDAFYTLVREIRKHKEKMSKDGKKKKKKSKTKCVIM
KRAS G13C, sequence (P62937 whole entry): as the sequence (P62937 whole entry) above
In short: as §5

[8] = molecular target: KRAS G12V (Homo sapiens (Human), UniProt P01116+P62937, G12V); test: Ras-Raf disruption/FRET/MOA assay, KRAS G12V
KRAS G12V, sequence (P01116 other isoform, or with tags, fused parts or gaps G12V): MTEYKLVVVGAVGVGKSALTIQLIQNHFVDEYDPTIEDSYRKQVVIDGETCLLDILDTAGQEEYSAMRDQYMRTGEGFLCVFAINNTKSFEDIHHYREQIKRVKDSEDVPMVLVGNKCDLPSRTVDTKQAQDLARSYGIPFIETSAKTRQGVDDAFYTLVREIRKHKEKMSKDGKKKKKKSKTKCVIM
KRAS G12V, sequence (P62937 whole entry): as the sequence (P62937 whole entry) above
In short: as §5

[9] = molecular target: KRAS G12C (Homo sapiens (Human), UniProt P01116+P62937, G12C); test: Ras-Raf disruption/FRET/MOA assay, KRAS G12C
KRAS G12C, sequence (P01116-2 other isoform, or with tags, fused parts or gaps G12C): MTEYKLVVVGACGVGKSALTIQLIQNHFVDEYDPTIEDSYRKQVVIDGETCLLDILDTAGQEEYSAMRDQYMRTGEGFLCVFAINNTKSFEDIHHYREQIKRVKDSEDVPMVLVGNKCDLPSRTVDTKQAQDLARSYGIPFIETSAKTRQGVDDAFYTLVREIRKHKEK
KRAS G12C, sequence (P62937 whole entry): as the sequence (P62937 whole entry) above
In short: as §5

[10] = molecular target: KRAS G12S (Homo sapiens (Human), UniProt P01116+P62937, G12S); test: Ras-Raf disruption/FRET/MOA assay, KRAS G12S
KRAS G12S, sequence (P01116 other isoform, or with tags, fused parts or gaps G12S): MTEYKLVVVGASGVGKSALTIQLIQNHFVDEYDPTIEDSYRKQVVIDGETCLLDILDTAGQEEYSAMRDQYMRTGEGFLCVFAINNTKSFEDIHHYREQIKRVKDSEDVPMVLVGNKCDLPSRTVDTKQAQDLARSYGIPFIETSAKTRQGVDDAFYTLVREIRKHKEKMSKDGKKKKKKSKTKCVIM
KRAS G12S, sequence (P62937 whole entry): as the sequence (P62937 whole entry) above
In short: as §5

[11] = molecular target: NRAS WT (Homo sapiens (Human), UniProt P01111+P62937); test: Ras-Raf disruption/FRET/MOA assay, NRAS WT
NRAS WT, sequence (P01111 whole entry): as the sequence (P01111 whole entry Q61R) above, with R61Q counted along it
NRAS WT, sequence (P62937 whole entry): as the sequence (P62937 whole entry) above
From the text: as §1, §2, §3, §4

[12] = molecular target: NRAS Q61K (Homo sapiens (Human), UniProt P01111+P62937, Q61K); test: Ras-Raf disruption/FRET/MOA assay, NRAS Q61K
NRAS Q61K, sequence (P01111 whole entry Q61K): as the sequence (P01111 whole entry Q61R) above, with R61K counted along it
NRAS Q61K, sequence (P62937 whole entry): as the sequence (P62937 whole entry) above
From the text: as §1, §2, §3, §4

KRAS Q61H, sequence (P01116 other isoform, or with tags, fused parts or gaps Q61H): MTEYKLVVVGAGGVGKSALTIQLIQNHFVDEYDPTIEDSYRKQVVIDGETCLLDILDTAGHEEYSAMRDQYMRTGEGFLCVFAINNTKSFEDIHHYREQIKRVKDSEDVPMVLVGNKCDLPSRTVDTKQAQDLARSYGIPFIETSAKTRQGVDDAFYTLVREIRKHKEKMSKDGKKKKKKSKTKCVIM
KRAS Q61H, sequence (P62937 whole entry, the tested form may be a part): as the sequence (P62937 whole entry) above

| Structure (SMILES) | IC50 [1] | IC50 [2] | IC50 [3] | IC50 [4] | IC50 [5] | IC50 [6] | IC50 [7] | IC50 [8] | IC50 [9] | IC50 [10] | IC50 [11] | IC50 [12] |
| --- | --- | --- | --- | --- | --- | --- | --- | --- | --- | --- | --- | --- |
| CCn1c(-c2cccnc2[C@H](C)OC)c2c3cc(ccc31)-c1cc(O)cc(c1)C[C@H](NC(=O)[C@H](C(C)C)N(C)C(=O)[C@]13C[C@H]1CCN3C(=O)[C@H]1CN1)C(=O)N1CCC[C@H](N1)C(=O)OCC(C)(C)C2 [Example 244] | 10 to 100 nM | 100 to 1000 nM | 100 to 1000 nM | 100 to 1000 nM | 10 to 100 nM | 100 to 1000 nM | 100 to 1000 nM | 100 to 1000 nM | 10 to 100 nM | 100 to 1000 nM | 100 to 1000 nM | 1000 to 10000 nM |
| CCn1c(-c2cccnc2[C@H](C)OC)c2c3cc(ccc31)-c1cc(O)cc(c1)C[C@H](NC(=O)[C@H](C(C)C)N(C)C(=O)[C@@H]1CO[C@H](C)CN1C(=O)[C@H]1CN1)C(=O)N1CCC[C@H](N1)C(=O)OCC(C)(C)C2 [Example 248] | 10 to 100 nM | 10 to 100 nM | 10 to 100 nM | 100 to 1000 nM | 10 to 100 nM | 10 to 100 nM | 10 to 100 nM | 10 to 100 nM | 10 to 100 nM | 10 to 100 nM | 10 to 100 nM | 100 to 1000 nM |
| CCn1c(-c2cccnc2[C@H](C)OC)c2c3cc(ccc31)-c1cc(O)cc(c1)C[C@H](NC(=O)[C@H](C(C)C)N(C)C(=O)[C@@H]1CO[C@H](C)CN1C(=O)[C@@H]1CN1)C(=O)N1CCC[C@H](N1)C(=O)OCC(C)(C)C2 [Example 249] | < 10 nM | 10 to 100 nM | 10 to 100 nM | 10 to 100 nM | < 10 nM | 10 to 100 nM | 10 to 100 nM | 10 to 100 nM | < 10 nM | 10 to 100 nM | 10 to 100 nM | 10 to 100 nM |
